# According to patent publication US20220152226A1, “INTRACELLULAR DELIVERY AND MITOCHONDRIAL TARGETING BY FLUORINATION” (The Texas A&M University System, priority 2019, published 2022):
# Legend:
# HeLa cells = experiment: Mitochondrial membrane potential measurement (JC-1 dye, flow cytometry); assay type: cell-based, human; conditions: 50 μM, 1 h, compared to untreated cells (FIG. 6B)
# Description: Mitochondrial Membrane Potential Measurement. The mitochondrial membrane potential was determined using the JC-1 dye by flow cytometry. Briefly, the HeLa cells were seeded at a density of 1×10^5 cells/well in 24-well plates for 24 h. The cells were incubated with the same molar concentration (50 μM) of the PEG2k-F7, TPP and CCCP (mitochondrial uncoupler) in the serum-free medium for 1 h. Then, the cells were washed three times by the iced-cold medium to remove the uninternalized materials. The cells were incubated with the JC-1 dye (Biotium) for 15 min at 37° C., followed by the flow cytometry.
# [1] = system: isolated mitochondria (HeLa cells); experiment: Competitive binding assay on isolated mitochondria (Rh123); set-up: species or system human; conditions: pre-incubation 37° C. 1 h, then Rh123 1 h
# Description: (§1) Mitochondria Isolation and Binding Affinity Study. The intracellular mitochondria were isolated by the commercial Mitochondria Isolation Kit for Cultured Cells (Thermo Fisher Scientific). Briefly, 2×10^7 HeLa cells were collected by trypsinization and centrifugation (850 g for 2 min). Then, the cells were lysed and the mitochondria were separated from other cell fragments by several washing and centrifugation steps as the manufacture's manual (Option A). The isolated mitochondria were freshly made for the binding affinity study.
# For the competitive binding assay, the isolated mitochondria were pre-incubated with triphenylphosphonium (TPP) or PEG2k-F7 at 37° C. for 1 h, and then washed with PBS for three times. The pretreated mitochondria were incubated with Rh123 at 37° C. for additional 1 h. After washing with PBS for three times, the mitochondria were analyzed by the microplate reader.
# [2] = Body weight and white blood cell counts of treated 4T1 tumor mice; assay type: in vivo, BALB/c mice
# Description: Animal experiments. The subcutaneous (s.c.) syngeneic 4T1 tumor mouse model was established by s.c. implantation of 5×10^6 4T1 cells in the right rear flank of the BALB/c mice. The tumor was measured by a caliper.
# To study anticancer activity, the saline, VES, PEG2k-F7, VES-loaded PEG2k-PE micelles and VES-loaded PEG2k-F7 micelles were injected intravenously via the tail at a dose of 20 mg/kg every three days for 3 injections. The tumor size and mouse body weight were monitored every other day. The mice were sacrificed and the blood, major organs and tumors were collected. White blood cells were counted by using a hemocytometry by microscopy.
# [3] = system: isolated mitochondria (HeLa cells); experiment: Binding affinity study with isolated mitochondria; set-up: species or system human; conditions: 37° C., 1 h, fluorescence
# Description: as §1
# The isolated mitochondria were incubated with the FITC-PEG2k, FITC-PE, FITC-F7, FITC-PEG2k-F7, Rh123, and MITOVIEW™ Green at 37° C. for 1 h, respectively. Then, the mitochondria were washed with PBS for three times and suspended in 200 μL PBS. The mitochondria suspension was observed on a Nikon Ti Eclipse fluorescence microscope. The fluorescence intensity was recorded on the microplate reader.
# mitochondria = experiment: Quantification of mitochondria-accumulated dyes in living cells; assay type: cell-based
# Description: For quantification of the mitochondria-accumulated dyes in living cells, 2×10^7 cells were incubated with the FITC-PE, FITC-F7, or Rh123 at 37° C. for 1 h. After washing with PBS, the (total) cellular fluorescence intensity was measured by microplate reader. Then, the cells were lysed and the mitochondria were separated from other cell fragments by Mitochondria Isolation Kit for Cultured Cells (Option A). The fluorescence intensities of the isolated mitochondria and other cell fragments were measured by the microplate reader. To study the influence of mitochondrial membrane potential on mitochondrial targeting, the cells were pre-incubated with the uncoupler, CCCP (50 μM), for 15 min, and then incubated with the FITC-F7 or Rh123 for 1 h.
compound,measurement,setting,value
"c1ccc(P(c2ccccc2)c2ccccc2)cc1 [TPP, triphenylphosphonium]",effect on mitochondrial membrane potential,HeLa cells,dramatically depolarized mitochondria
same,decrease of Rh123 binding affinity by pre-incubation,[1],about 50%
"Cc1c(C)c2c(c(C)c1OC(=O)CCC(=O)O)CC[C@@](C)(CCC[C@H](C)CCC[C@H](C)CCCC(C)C)O2 [VES, d-Vitamin E succinate]",white blood cell (WBC) counts,[2]; FIG. 13,relatively similar to one another
same,body weight of mice,[2]; over 14 days (FIG. 10),stayed relatively the same
fluorescein isothiocyanate [FITC],binding affinity with isolated mitochondria,[3],did not significantly bind
rhodamine 123 [Rh123],effect of CCCP-induced membrane depolarization on mitochondrial accumulation,"mitochondria; CCCP 50 μM pre-incubation 15 min, then dye 1 h",substantially reduced
same,mitochondrial accumulation,"mitochondria; mitochondria isolated from treated cells, 37° C., 1 h",17.5%
